Data as given in US11312719B2, “9-substituted amino triazolo quinazoline derivatives as adenosine receptor antagonists, pharmaceutical compositions and their use” (Merck Sharp & Dohme Corp., priority 2018, dated 2022).

Columns and labels:
human A2A receptors = human A2A receptors (Homo sapiens (Human), UniProt P29274); experiment: A2A antagonism in cAMP cell-based assay (LANCE cAMP, HEK293); conditions: HEK293 cells expressing human A2A receptor
Method in brief: (§1)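 HEK293 cells expressing human A2A or A2B, in HBSS/5 mM HEPES/200 nM rolipram, were preincubated with compound (0.5–10,000 nM, 0.25% DMSO) 30 min at 37° C. Adenosine was then added from 300 nM (A2A) or 600 nM (A2B) solution for 30 min.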

human A2B receptors = human A2B receptors (Homo sapiens (Human), UniProt P29275); experiment: A2B antagonism in cAMP cell-based assay (LANCE cAMP, HEK293); conditions: HEK293 cells expressing human A2B receptor
Chain of human A2B receptors (P29275 whole entry): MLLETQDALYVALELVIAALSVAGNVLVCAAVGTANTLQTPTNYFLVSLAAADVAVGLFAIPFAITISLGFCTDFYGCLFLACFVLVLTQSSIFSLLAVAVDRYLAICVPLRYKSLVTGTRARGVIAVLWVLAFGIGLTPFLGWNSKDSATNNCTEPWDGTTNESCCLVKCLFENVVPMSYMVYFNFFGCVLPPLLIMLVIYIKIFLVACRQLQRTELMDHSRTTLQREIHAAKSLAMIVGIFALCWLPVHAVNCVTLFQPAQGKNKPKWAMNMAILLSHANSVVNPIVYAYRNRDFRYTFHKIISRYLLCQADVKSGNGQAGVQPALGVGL
Method in brief: as §1

Chain of human A2A receptors (P29274 whole entry): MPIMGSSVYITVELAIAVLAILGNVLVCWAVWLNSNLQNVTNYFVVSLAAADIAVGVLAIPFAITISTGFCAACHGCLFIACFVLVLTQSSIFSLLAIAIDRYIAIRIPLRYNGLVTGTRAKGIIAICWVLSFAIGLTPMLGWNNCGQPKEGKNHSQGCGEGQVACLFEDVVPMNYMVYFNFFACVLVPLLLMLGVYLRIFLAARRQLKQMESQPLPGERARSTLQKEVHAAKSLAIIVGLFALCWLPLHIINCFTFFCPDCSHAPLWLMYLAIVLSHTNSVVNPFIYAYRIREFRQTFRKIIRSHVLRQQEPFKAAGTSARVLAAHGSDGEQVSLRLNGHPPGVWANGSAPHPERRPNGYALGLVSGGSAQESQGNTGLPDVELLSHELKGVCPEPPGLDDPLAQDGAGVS

Row | Structure (SMILES) | IC50 (human A2A receptors) | IC50 (human A2B receptors)
1 | CC1CC(c2nc3c4cc(F)cc(F)c4nc(N)n3n2)CN(c2cnn(CC(C)(C)O)c2)C1 (single isomer, unassigned) [Example 182, 1-(4-((3R,5R or 3S,5S)-3-(5-amino-7,9-difluoro-[1,2,4]triazolo[1,5-c]quinazolin-2-yl)-5-methylpiperidin-1-yl)-1H-pyrazol-1-yl)-2-methylpropan-2-ol] | 362 nM | > 10000 nM
2 | Cc1nn(C(C)C(C)O)cc1N1CC(C)CC(c2nc3c4cc(F)cc(F)c4nc(N)n3n2)C1 (single isomer, unassigned) [Example 214, (2R,3R or 2S,3S)-3-(4-((3S,5R or 3R,5S)-3-(5-amino-7,9-difluoro-[1,2,4]triazolo[1,5-c]quinazolin-2-yl)-5-methylpiperidin-1-yl)-3-methyl-1H-pyrazol-1-yl)butan-2-ol] | 0.5 nM | 34.1 nM
3 | COc1cc2nc(N)n3nc(C4CCC(C)N(c5cnn(CC(C)(O)CO)c5)C4)nc3c2cc1F (single isomer, unassigned) [Example 252] | 95 nM | 8160 nM
4 | COc1cc2nc(N)n3nc([C@@H]4CCCN(c5cnn(C(C)C(C)O)c5C)C4)nc3c2cc1F (single isomer, unassigned) [Example 196, (2R,3R or 2S,3S)-3-(4-((R)-3-(5-amino-9-fluoro-8-methoxy-[1,2,4]triazolo[1,5-c]quinazolin-2-yl)piperidin-1-yl)-5-methyl-1H-pyrazol-1-yl)butan-2-ol] | 3.7 nM | 475 nM
5 | COc1cc(F)cc2c1nc(N)n1nc(C3CC(C)CN(c4cnn(C(C)C(C)O)c4C)C3)nc21 (single isomer, unassigned) [Example 223, (2S,3S or 2R,3R)-3-(4-((3S,5R or 3R,5S)-3-(5-amino-9-fluoro-7-methoxy-[1,2,4]triazolo[1,5-c]quinazolin-2-yl)-5-methylpiperidin-1-yl)-5-methyl-1H-pyrazol-1-yl)butan-2-ol] | 0.7 nM | 46 nM
6 | Cc1nn(C(C)C(C)O)cc1N1CC(C)CC(c2nc3c4cc(F)cc(F)c4nc(N)n3n2)C1 (single isomer, unassigned) [Example 215, (2S,3S or 2R,3R)-3-(4-((3S,5R or 3R,5S)-3-(5-amino-7,9-difluoro-[1,2,4]triazolo[1,5-c]quinazolin-2-yl)-5-methylpiperidin-1-yl)-3-methyl-1H-pyrazol-1-yl)butan-2-ol] | 0.4 nM | 27.5 nM
7 | CC(O)C(C)(C)n1cc(N2CCC[C@@H](c3nc4c5cc(F)cc(F)c5nc(N)n4n3)C2)cn1 (single isomer, unassigned) [Example 246, (R or S)-3-(4-((R)-3-(5-amino-7,9-difluoro-[1,2,4]triazolo [1,5-c]quinazolin-2-yl)piperidin-1-yl)-1H-pyrazol-1-yl)-3-methylbutan-2-ol] | 3.2 nM | 21.3 nM
8 | COc1cc2nc(N)n3nc([C@@H]4CCCN(c5cnn(C(C)(C)CO)c5)C4)nc3c2cc1F [Example 151, (R)-2-(4-(3-(5-amino-9-fluoro-8-methoxy-[1,2,4]triazolo[1,5-c]quinazolin-2-yl)piperidin-1-yl)-1H-pyrazol-1-yl)-2-methylpropan-1-ol] | 3.8 nM | 56.9 nM
9 | COc1cc2nc(N)n3nc(C4CC(C)CN(c5cnn(CC(C)(C)O)c5C)C4)nc3c2cc1F (single isomer, unassigned) [Example 275, 1-((4-((3S,5R or 3R,5S)-5-(5-amino-9-fluoro-8-methoxy-[1,2,4]triazolo[1,5-c]quinazolin-2-yl)-5-methylpiperidin-1-yl)-5-methyl-1H-pyrazol-1-yl)-2-methylpropan-2-ol] | 15.6 nM | 2470 nM
10 | CC(O)C(C)n1cc(N2CCC[C@@H](c3nc4c5cc(F)cc(F)c5nc(N)n4n3)C2)cn1 (single isomer, unassigned) [Example 204, (2S,3R or 2R,3S)-3-(4-((R)-3-(5-amino-7,9-difluoro-[1,2,4]triazolo[1,5-c]quinazolin-2-yl)piperidin-1-yl)-1H-pyrazol-1-yl)butan-2-ol] | 7.8 nM | 87.7 nM
11 | COc1cc2nc(N)n3nc(C4CCC(C)N(c5cnn(CC6(O)CC6)c5)C4)nc3c2cc1F (single isomer, unassigned) [Example 273, 1-((4-((2R,5S or 2S,5R)-5-(5-amino-9-fluoro-8-methoxy-[1,2,4]triazolo[1,5-c]quinazolin-2-yl)-2-methylpiperidin-1-yl)-1H-pyrazol-1-yl)methyl)cyclopropan-1-ol] | 1.2 nM | 26.7 nM
12 | CC1CC(c2nc3c4cc(F)cc(F)c4nc(N)n3n2)CN(c2cnn(C(C)(C)CO)c2)C1 (single isomer, unassigned) [Example 180, 2-(4-((3R,5R or 3S,5S)-3-(5-amino-7,9-difluoro-[1,2,4]triazolo[1,5-c]quinazolin-2-yl)-5-methylpiperidin-1-yl)-1H-pyrazol-1-yl)-2-methylpropan-1-ol] | 54 nM | 5340 nM
13 | COc1cc(F)cc2c1nc(N)n1nc(C3CC(C)CN(c4cnn(C(C)(C)CO)c4)C3)nc21 (single isomer, unassigned) [Example 166, 2-(4-((3S,5R or 3R,5S)-3-(5-amino-9-fluoro-7-methoxy-[1,2,4]triazolo[1,5-c]quinazolin-2-yl)-5-methylpiperidin-1-yl)-1H-pyrazol-1-yl)-2-methylpropan-1-ol] | 20 nM | 2770 nM
14 | CC1CCC(c2nc3c4cc(F)cc(F)c4nc(N)n3n2)CN1c1cnn(CC(C)(O)CO)c1 (single isomer, unassigned) [Example 258, (R or S)-2-(4-((2R,5S or 2S,5R)-5-(5-amino-7,9-difluoro-[1,2,4]triazolo[1,5-c]quinazolin-2-yl)-2-methylpiperidin-1-yl)-1H-pyrazol-1-yl)-2-methylpropane-1,2-diol] | 2.3 nM | 8.1 nM
15 | CC1CCC(c2nc3c4cc(F)cc(F)c4nc(N)n3n2)CN1c1cnn(CC(C)(CO)CO)c1 (single isomer, unassigned) [Example 261] | 86.6 nM | 1470 nM
16 | COc1cc(F)cc2c1nc(N)n1nc(C3CCC(C)N(c4cnn(C(C)(C)C(C)O)c4)C3)nc21 (single isomer, unassigned) [Example 270, (R or S)-3-(4-((2R,5S or 2S,5R)-5-(5-amino-9-fluoro-7-methoxy-[1,2,4]triazolo[1,5-c]quinazolin-2-yl)-2-methylpiperidin-1-yl)-1H-pyrazol-1-yl)-3-methylbutan-2-ol] | 5.2 nM | 30.3 nM
17 | COc1cc(F)cc2c1nc(N)n1nc([C@@H]3CCCN(c4cnn(C(C)(C)C(C)O)c4)C3)nc21 (single isomer, unassigned) [Example 244, (R or S)-3-(4-((R)-3-(5-amino-9-fluoro-7 methoxy-[1,2,4]triazolo[1,5-c]quinazolin-2-yl)piperidin-1-yl)-1H-pyrazol-1-yl)-3-methylbutan-2-ol] | 0.9 nM | 18.8 nM
18 | COc1cc2nc(N)n3nc(C4CCC(C)N(c5cnn(C(C)(CO)CO)c5)C4)nc3c2cc1F (single isomer, unassigned) [Example 250, 2-(4-((2S,5R or 2R,5S)-5-(5-amino-9-fluoro-8-methoxy-[1,2,4]triazolo[1,5-c]quinazolin-2-yl)-2-methylpiperidin-1-yl)-1H-pyrazol-1-yl)-2-methylpropane-1,3-diol] | 0.7 nM | 4.9 nM
19 | CC(O)C(C)n1cc(N2CCC[C@@H](c3nc4c5cc(F)cc(F)c5nc(N)n4n3)C2)cn1 (single isomer, unassigned) [Example 197, (2S,3S or 2R,3R)-3-(4-((R)-3-(5-amino-7,9-difluoro-[1,2,4]triazolo[1,5-c]quinazolin-2-yl)piperidin-1-yl)-1H-pyrazol-1-yl)butan-2-ol] | 6.4 nM | 93 nM
20 | Cc1nn(C(C)C(C)O)cc1N1CCC[C@@H](c2nc3c4cc(F)cc(F)c4nc(N)n3n2)C1 (single isomer, unassigned) [Example 192, (2R,3R or 2S,3S)-3-(4-((R)-3-(5-amino-7,9-difluoro-[1,2,4]triazolo[1,5-c]quinazolin-2-yl)piperidin-1-yl)-3-methyl-1H-pyrazol-1-yl)butan-2-ol] | 0.8 nM | 72.4 nM
21 | COc1cc2nc(N)n3nc(C4CCC(C)N(c5cnn(C(C)C(C)O)c5)C4)nc3c2cc1F (single isomer, unassigned) [Example 238, (2S,3R or 2R,3S)-3-(4-((2R,5S or 2S,5R)-5-(5-amino-9-fluoro-8-methoxy-[1,2,4]triazolo[1,5-c]quinazolin-2-yl)-2-methylpiperidin-1-yl)-1H-pyrazol-1-yl)butan-2-ol] | 21.8 nM | 2440 nM
22 | CC(O)C(C)(C)n1cc(N2CCC[C@@H](c3nc4c5cc(F)cc(F)c5nc(N)n4n3)C2)cn1 (single isomer, unassigned) [Example 247, (S or R)-3-(4-((R)-3-(5-amino-7,9-difluoro-[1,2,4]triazolo [1,5-c]quinazolin-2-yl)piperidin-1-yl)-1H-pyrazol-1-yl)-3-methylbutan-2-ol] | 4.5 nM | 21.8 nM
23 | COc1cc(F)cc2c1nc(N)n1nc(C3CC(C)CN(c4cn(C(C)(C)C(C)O)nc4C)C3)nc21 (single isomer, unassigned) [Example 205, (R or S)-3-(4-((3R,5S or 3S,5R)-3-(5-amino-9-fluoro-7-methoxy-[1,2,4]triazolo[1,5-c]quinazolin-2-yl)-5-methylpiperidin-1-yl)-3-methyl-1H-pyrazol-1-yl)-3-methylbutan-2-ol] | 7 nM | 1150 nM
24 | COc1cc2nc(N)n3nc(C4CCC(C)N(c5cnn(C(C)(C)C(C)O)c5)C4)nc3c2cc1F (single isomer, unassigned) [Example 266, (R or S)-3-(4-((2R,5S or 2S,5R)-5-(5-amino-9-fluoro-8-methoxy-[1,2,4]triazolo[1,5-c]quinazolin-2-yl)-2-methylpiperidin-1-yl)-1H-pyrazol-1-yl)-3-methylbutan-2-ol] | 64.2 nM | 580 nM
